Each structure is given as a SMILES string. Structures can show the parent of a compound that is named as a salt.

Usually melting point stands for the temperature of the solid-liquid transition. With `COc1cc2c(cc1OC)CN(CC(=O)c1cc(C(=O)c3ccc(SC)cc3)n(C)c1)CC2` (as salt: hydrochloride) [Compound 4, 2-(3,4-dihydro-6,7-dimethoxy-2(1H)-isoquinolinyl)-1-[1-methyl-5-[4-(methylthio)benzoyl]-1H-pyrrol-3-yl]-ethanone], the melting point fell in the range of 231 to 233 °C.

Source of the values: patent publication US6492387B2, “Isoindolyl and isoquinolinyl aroyl pyrrole compounds” (Ortho-McNeil Pharamaceutical, Inc., priority 2000, dated 2002).
